The structures appear in SMILES notation.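 A five-concentration, 48-hour dose response in 96-well plates underlies each endpoint, interpolated linearly between surrounding concentrations. GI50 = concentration required for 50% inhibition of growth. Definition used: TGI = concentration required for complete inhibition of growth.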 Some results are limits rather than exact numbers.

Among the test systems are 786-0 renal; ACHN renal; CAKI-1 renal; MOLT-4 leukemia; OVCAR-3 ovarian; SF-295 CNS; SF-539 CNS; UO-31 renal; M14 melanoma; NCI/ADR-RES ovarian.
Assay in all cases: NCI anticancer screen, dose series, 48 h

In the case of `COC(=O)C1(F)C(=O)NC(=O)NC1OC` (stereo not drawn), the TGI with 786-0 renal, in the assay on ACHN renal, in the assay with CAKI-1 renal, in the assay with MOLT-4 leukemia, in the assay with OVCAR-3 ovarian and in the assay on SF-295 CNS was over 100 µM in each case. The TGI in the assay on SF-539 CNS and in the assay on UO-31 renal was over 100 µM throughout.

With `NC(=O)c1c[se]c(C2OC(COP(=O)(O)CP(=O)(O)OCC3OC(n4cnc5c(N)ncnc54)C(O)C3O)C(O)C2O)n1` (stereo not drawn), the TGI with 786-0 renal, with ACHN renal, with CAKI-1 renal, in the assay with M14 melanoma, in the assay with MOLT-4 leukemia and in the assay on OVCAR-3 ovarian was over 100 µM in each case. For the same compound, the TGI in the assay on SF-295 CNS, in the assay on SF-539 CNS and in the assay on UO-31 renal was over 100 µM each time.

As to `COC(=O)c1cc2c3c(ccc2[nH]1)N(C(=O)c1cc2c4c(ccc2[nH]1)N(C(=O)c1cc2c5c(ccc2[nH]1)N(C(N)=O)CC5)CC4)CC3`, the TGI was over 31.9 µM in the assay on 786-0 renal; over 27.8 µM with ACHN renal; 8.95 µM with CAKI-1 renal; over 21.3 µM with M14 melanoma; over 100 µM with MOLT-4 leukemia; over 28.9 µM in the assay on OVCAR-3 ovarian. For the same compound, the TGI is 44 µM with SF-295 CNS, over 34.8 µM in the assay with SF-539 CNS and 8.47 µM in the assay with UO-31 renal.

As to `CC12OC(C(=O)C13CCC3)C1C(=O)c3ccccc3C(=O)C12` (stereo not drawn), the GI50 in the assay on 786-0 renal was over 100000 nM; with ACHN renal, over 100 µM; with CAKI-1 renal it was 32700 nM; in the assay on M14 melanoma, over 100000 nM; in the assay with MOLT-4 leukemia, 37.6 µM; in the assay with NCI/ADR-RES ovarian, over 100 µM. Also, the GI50 is over 100000 nM in the assay with SF-539 CNS and over 100 µM with UO-31 renal. Further, the TGI in the assay with 786-0 renal, in the assay on ACHN renal, in the assay with CAKI-1 renal, with M14 melanoma, in the assay with MOLT-4 leukemia and in the assay with NCI/ADR-RES ovarian was over 100 µM in each case. The TGI in the assay on SF-539 CNS and with UO-31 renal was over 100 µM throughout.

Regarding `COc1cc2cccc(N=Cc3c(Br)ccc(OC)c3OC(C)C)c2cc1OC`, the TGI in the assay on 786-0 renal was 69.9 µM; in the assay on ACHN renal, over 100 µM; in the assay with CAKI-1 renal, 70.2 µM; in the assay on M14 melanoma, over 100 µM; with MOLT-4 leukemia, over 100 µM; in the assay on OVCAR-3 ovarian it was over 100 µM. Further, the TGI in the assay with SF-295 CNS, in the assay with SF-539 CNS and in the assay on UO-31 renal was over 100 µM in each case.

For `c1ccc(NC[Si]23OCCN(CCO2)CCO3)cc1`, the TGI in the assay on 786-0 renal, with ACHN renal, with CAKI-1 renal, with MOLT-4 leukemia, in the assay with OVCAR-3 ovarian and in the assay on SF-295 CNS was over 100 µM in each case. Also, the TGI in the assay on SF-539 CNS and with UO-31 renal was over 100 µM throughout.

On to `COc1cc([C@H]2c3[nH]c4ccccc4c3C[C@H]3COC(=O)N32)cc(OC)c1O`, for which the TGI is 10.7 µM in the assay with 786-0 renal; 28.5 µM in the assay on ACHN renal; 46.8 µM in the assay on CAKI-1 renal; over 100 µM in the assay with M14 melanoma; 11.2 µM in the assay with MOLT-4 leukemia; over 100 µM in the assay on NCI/ADR-RES ovarian. Further, the figures for the TGI in the assay on SF-295 CNS, with SF-539 CNS and with UO-31 renal were 81.8 µM, 2.86 µM and 29.7 µM, respectively.

With `CC(C)(C)c1cc(CCC(=O)Nc2ccc(Cl)cc2Cl)nc(N)n1`, the TGI with 786-0 renal, with ACHN renal, in the assay on CAKI-1 renal, in the assay with M14 melanoma, in the assay with MOLT-4 leukemia and in the assay with OVCAR-3 ovarian was over 100 µM throughout. Besides, the TGI in the assay on SF-295 CNS, in the assay on SF-539 CNS and in the assay with UO-31 renal was over 100 µM in each case.

For `O=C1C(c2ccccc2)=C(c2ccccc2)[C@H](c2ccccc2)[C@]1(Cc1nnn(-c2ccc([N+](=O)[O-])cc2)c1N1CCOCC1)c1ccccc1`, the TGI with 786-0 renal, in the assay on ACHN renal, in the assay with CAKI-1 renal, in the assay with M14 melanoma, in the assay on MOLT-4 leukemia and with OVCAR-3 ovarian was over 37.5 µM throughout. The TGI in the assay on SF-295 CNS and in the assay on SF-539 CNS was over 37.5 µM in each case.

With `C=C(CNCCc1ccc(O)cc1)[C@@H]1CC[C@]2(CO)CC[C@]3(C)[C@H](CC[C@@H]4[C@@]5(C)CCC(N)C(C)(C)[C@@H]5CC[C@]43C)[C@@H]12` (stereo partly drawn), the GI50 is 1520 nM in the assay with 786-0 renal; 1.78 µM in the assay with ACHN renal; 1590 nM in the assay on CAKI-1 renal; 1750 nM in the assay with M14 melanoma; 1650 nM in the assay on OVCAR-3 ovarian; 1730 nM with SF-295 CNS. The GI50 is 1560 nM with SF-539 CNS and 1.42 µM in the assay on UO-31 renal. Also, the TGI in the assay on 786-0 renal is 3 µM; in the assay on ACHN renal it was 3.19 µM; with CAKI-1 renal it was 3.1 µM; in the assay with M14 melanoma it was 3.33 µM; with OVCAR-3 ovarian, 3.1 µM; in the assay on SF-295 CNS, 3.3 µM. The TGI in the assay with SF-539 CNS was determined as 2.94 µM; with UO-31 renal it was 2.76 µM.

Consider `O=C(O)[C@@H]1CCCC[C@@H]1C(=O)N(C1CCCCC1)C1CCCCC1`, for which the TGI with 786-0 renal, in the assay with ACHN renal, in the assay on CAKI-1 renal, with M14 melanoma, in the assay on MOLT-4 leukemia and in the assay on OVCAR-3 ovarian was over 100 µM each time. Further, the TGI with SF-295 CNS, in the assay on SF-539 CNS and in the assay on UO-31 renal was over 100 µM throughout.

For `CCN(CC)CCOc1ccc(/C=C2\CC3C4CC=C5C[C@@H](OC(C)=O)CC[C@]5(C)C4CC[C@]3(C)C2=O)cc1OC` (stereo partly drawn), the GI50 in the assay on 786-0 renal is 2030 nM; in the assay on ACHN renal, 9.84 µM; in the assay with CAKI-1 renal, 429 nM; in the assay on M14 melanoma, 2090 nM; with MOLT-4 leukemia, 1.45 µM; in the assay on NCI/ADR-RES ovarian it was 5.08 µM. Also, the GI50 in the assay on OVCAR-3 ovarian was 1780 nM; with SF-295 CNS, 2020 nM; in the assay with UO-31 renal it was 11.1 µM. Besides, the TGI in the assay on 786-0 renal is 4.29 µM; with ACHN renal, 21.5 µM; in the assay with CAKI-1 renal, 2.52 µM; in the assay on M14 melanoma, 4.36 µM; in the assay on MOLT-4 leukemia it was over 100 µM; in the assay on NCI/ADR-RES ovarian it was over 100 µM. In addition, the TGI in the assay with OVCAR-3 ovarian amounted to 3.45 µM; in the assay on SF-295 CNS, 3.94 µM; in the assay on UO-31 renal, 23.1 µM.

Values taken from PubChem BioAssay (NCI).
